From ChEMBL document CHEMBL1909582, “Identification of novel NK1/NK3 dual antagonists for the potential treatment of schizophrenia” (Bioorg Med Chem Lett, 2011)

What was measured:
[1] = biological target: T1, Neuromedin-K receptor (Homo sapiens, UniProt P29371); assay: Antagonist activity at human recombinant NK3 receptor expressed in human U20S cells assessed as effect on NKB-induced intracellular calcium level by FLIPR assay; format: functional, cell-based, U2OS
T1 sequence (P29371 whole entry): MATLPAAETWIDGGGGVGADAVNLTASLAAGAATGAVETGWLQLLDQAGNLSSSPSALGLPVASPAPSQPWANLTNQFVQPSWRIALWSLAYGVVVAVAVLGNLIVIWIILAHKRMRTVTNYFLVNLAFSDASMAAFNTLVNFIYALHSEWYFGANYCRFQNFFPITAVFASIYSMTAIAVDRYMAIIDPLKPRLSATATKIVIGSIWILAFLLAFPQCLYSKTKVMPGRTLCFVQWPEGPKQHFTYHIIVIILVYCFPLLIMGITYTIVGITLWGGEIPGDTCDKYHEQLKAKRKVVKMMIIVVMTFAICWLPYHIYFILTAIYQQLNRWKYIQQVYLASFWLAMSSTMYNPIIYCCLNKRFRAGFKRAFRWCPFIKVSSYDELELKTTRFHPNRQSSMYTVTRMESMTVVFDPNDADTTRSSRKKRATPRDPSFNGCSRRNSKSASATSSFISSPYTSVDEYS

[2] = biological target: T2, Substance-P receptor (Homo sapiens, UniProt P25103); assay: Antagonist activity at human recombinant NK1 receptor expressed in human U20S cells assessed as substance P maximal stimulation at 3 nM by FLIPR assay; format: functional, cell-based; settings: U2OS
[3] = biological target: T2, Substance-P receptor; assay: Antagonist activity at human recombinant NK1 receptor expressed in human U20S cells assessed as effect on substance P-induced intracellular calcium level by FLIPR assay; format: functional, cell-based, U2OS
[4] = biological target: T2, Substance-P receptor; assay: Antagonist activity at human recombinant NK1 receptor expressed in human U20S cells assessed as substance P maximal stimulation at 1 nM by FLIPR assay; format: functional, cell-based; settings: U2OS
[5] = biological target: T3, Neuromedin-K receptor (Homo sapiens) (UniProt P29371); assay: Antagonist activity at human recombinant NK3 receptor expressed in human U20S cells assessed as neurokinin B maximal stimulation at 100 nM by FLIPR assay; settings: U2OS
T3 sequence (whole entry): T1 sequence (P29371 whole entry)

[6] = biological target: T3, Neuromedin-K receptor (Homo sapiens); assay: Antagonist activity at human recombinant NK3 receptor expressed in human U20S cells assessed as neurokinin B maximal stimulation at 30 nM by FLIPR assay; settings: U2OS

T2 sequence (P25103 whole entry): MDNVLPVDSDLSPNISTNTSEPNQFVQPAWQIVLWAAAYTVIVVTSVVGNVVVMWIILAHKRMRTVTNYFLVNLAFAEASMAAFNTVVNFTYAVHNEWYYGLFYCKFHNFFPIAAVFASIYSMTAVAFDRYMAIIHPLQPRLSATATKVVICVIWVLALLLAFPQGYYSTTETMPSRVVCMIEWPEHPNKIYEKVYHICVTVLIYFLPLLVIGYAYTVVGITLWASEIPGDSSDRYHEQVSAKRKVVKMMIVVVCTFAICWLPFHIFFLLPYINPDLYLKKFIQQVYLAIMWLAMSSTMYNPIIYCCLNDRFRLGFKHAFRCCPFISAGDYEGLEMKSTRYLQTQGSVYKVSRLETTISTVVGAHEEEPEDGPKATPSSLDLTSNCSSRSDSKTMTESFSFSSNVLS

SMILES	Ki [1] [nM]	Emax [2] [%]	Ki [3] [nM]	Emax [4] [%]	Emax [5] [%]	Emax [6] [%]
Cc1cc(F)ccc1-c1cc(C2CNC(=O)C2)ncc1N(C)C(=O)C(C)(C)c1cc(C(F)(F)F)cc(C(F)(F)F)c1 (stereo not drawn)	31.6	20	< 0.158	64		
Cc1cc(F)ccc1-c1cc(C2CNC(=O)C2CO)ncc1N(C)C(=O)C(C)(C)c1cc(C(F)(F)F)cc(C(F)(F)F)c1 (racemic) [listing 1 of 2 here]	7.94		0.251			
Cc1cc(F)ccc1-c1cc(C2CC(=O)NC2(CO)CO)ncc1N(C)C(=O)C(C)(C)c1cc(C(F)(F)F)cc(C(F)(F)F)c1 (racemic) [listing 1 of 2 here]	5.01		0.1			
Cc1cc(F)ccc1-c1cc(C2CC(=O)NC2(CO)CO)ncc1N(C)C(=O)C(C)(C)c1cc(C(F)(F)F)cc(C(F)(F)F)c1 (racemic) [listing 2 of 2 here]		28		89		
Cc1cc(F)ccc1-c1cc(C2CNC(=O)C2CO)ncc1N(C)C(=O)C(C)(C)c1cc(C(F)(F)F)cc(C(F)(F)F)c1 (racemic) [listing 2 of 2 here]		63		109		
Cc1cc(F)ccc1-c1cc(C2CN(C)C(=O)C2CO)ncc1N(C)C(=O)C(C)(C)c1cc(C(F)(F)F)cc(C(F)(F)F)c1 (single isomer, unassigned)	1	5	0.0631	66	56	67
Cc1cc(F)ccc1-c1cc(C2NC(=O)CC2CO)ncc1N(C)C(=O)C(C)(C)c1cc(C(F)(F)F)cc(C(F)(F)F)c1 (single isomer, unassigned; 8a) [listing 1 of 2 here]	39.8		0.0794			
Cc1cc(F)ccc1-c1cc(C2NC(=O)CC2CO)ncc1N(C)C(=O)C(C)(C)c1cc(C(F)(F)F)cc(C(F)(F)F)c1 (single isomer, unassigned; 8a) [listing 2 of 2 here]		25		64		
Cc1cc(F)ccc1-c1cc(C2NC(=O)CC2CO)ncc1N(C)C(=O)C(C)(C)c1cc(C(F)(F)F)cc(C(F)(F)F)c1 (single isomer, unassigned; 8b)	501		0.501			
Cc1cc(F)ccc1-c1cc(C2NC(=O)CC2CO)ncc1N(C)C(=O)C(C)(C)c1cc(C(F)(F)F)cc(C(F)(F)F)c1 (single isomer, unassigned; 9a) [listing 1 of 2 here]	5.01		0.251			
Cc1cc(F)ccc1-c1cc(C2NC(=O)CC2CO)ncc1N(C)C(=O)C(C)(C)c1cc(C(F)(F)F)cc(C(F)(F)F)c1 (single isomer, unassigned; 9a) [listing 2 of 2 here]		60		98	74	83
Cc1cc(F)ccc1-c1cc(C2NC(=O)CC2CO)ncc1N(C)C(=O)C(C)(C)c1cc(C(F)(F)F)cc(C(F)(F)F)c1 (single isomer, unassigned; 9b) [listing 1 of 2 here]	31.6		0.316			
Cc1cc(F)ccc1-c1cc(C2NC(=O)CC2CO)ncc1N(C)C(=O)C(C)(C)c1cc(C(F)(F)F)cc(C(F)(F)F)c1 (single isomer, unassigned; 9b) [listing 2 of 2 here]		30		79		
Cc1cc(F)ccc1-c1cc(C2CC(=O)NC2CO)ncc1N(C)C(=O)C(C)(C)c1cc(C(F)(F)F)cc(C(F)(F)F)c1 (single isomer, unassigned; 21a)	25.1		< 0.158			
Cc1cc(F)ccc1-c1cc(C2CC(=O)NC2CO)ncc1N(C)C(=O)C(C)(C)c1cc(C(F)(F)F)cc(C(F)(F)F)c1 (single isomer, unassigned; 21b)	794		< 0.158			
Cc1cc(F)ccc1-c1cc(C2CC(=O)NC2CO)ncc1N(C)C(=O)C(C)(C)c1cc(C(F)(F)F)cc(C(F)(F)F)c1 (single isomer, unassigned; 22a) [listing 1 of 2 here]	2		0.251			
Cc1cc(F)ccc1-c1cc(C2CC(=O)NC2CO)ncc1N(C)C(=O)C(C)(C)c1cc(C(F)(F)F)cc(C(F)(F)F)c1 (single isomer, unassigned; 22a) [listing 2 of 2 here]		39		103	76	101
Cc1cc(F)ccc1-c1cc(C2CC(=O)NC2CO)ncc1N(C)C(=O)C(C)(C)c1cc(C(F)(F)F)cc(C(F)(F)F)c1 (single isomer, unassigned; 22b)	20		0.251			
Cc1cc(F)ccc1-c1cc(C2CNC(=O)C2CO)ncc1N(C)C(=O)C(C)(C)c1cc(C(F)(F)F)cc(C(F)(F)F)c1 (single isomer, unassigned; enantiomer 1) [listing 1 of 2 here]	79.4		0.0501			
Cc1cc(F)ccc1-c1cc(C2CC(=O)NC2(CO)CO)ncc1N(C)C(=O)C(C)(C)c1cc(C(F)(F)F)cc(C(F)(F)F)c1 (single isomer, unassigned; enantiomer 1)	6.31		< 0.158			
Cc1cc(F)ccc1-c1cc(C2CNC(=O)C2CO)ncc1N(C)C(=O)C(C)(C)c1cc(C(F)(F)F)cc(C(F)(F)F)c1 (single isomer, unassigned; enantiomer 1) [listing 2 of 2 here]		19		103		
Cc1cc(F)ccc1-c1cc(C2CNC(=O)C2CO)ncc1N(C)C(=O)C(C)(C)c1cc(C(F)(F)F)cc(C(F)(F)F)c1 (single isomer, unassigned; enantiomer 2) [listing 1 of 2 here]	1.58		0.158			
Cc1cc(F)ccc1-c1cc(C2CC(=O)NC2(CO)CO)ncc1N(C)C(=O)C(C)(C)c1cc(C(F)(F)F)cc(C(F)(F)F)c1 (single isomer, unassigned; enantiomer 2)	631		< 0.158			
Cc1cc(F)ccc1-c1cc(C2CNC(=O)C2CO)ncc1N(C)C(=O)C(C)(C)c1cc(C(F)(F)F)cc(C(F)(F)F)c1 (single isomer, unassigned; enantiomer 2) [listing 2 of 2 here]		37		101		
